Laboratory results taken from patent US6222035A, “[1,2,4] triazolo [1,5-C] pyrimidine derivatives” (Kyowa Hakko Kogyo Co., Ltd., priority 1997, dated 2001).
Counter-ions that a name gives are not always drawn.

Tests used:
adenosine A2A receptor = target: T1, adenosine A2A receptor (Rattus norvegicus, UniProt P30543); experiment: Adenosine receptor binding activity (adenosine A2A receptor binding test), 3H-CGS 21680 binding; conditions: 2 h, read-out: A2A receptor inhibition ratio (%); for inhibition at 0.1 µM: 10^-7 M; for inhibition at 0.01 µM: 10^-8 M
T1 construct: from tissue; host or cells: rat corpus striatum, washed membrane suspension
T1 sequence (P30543 whole entry): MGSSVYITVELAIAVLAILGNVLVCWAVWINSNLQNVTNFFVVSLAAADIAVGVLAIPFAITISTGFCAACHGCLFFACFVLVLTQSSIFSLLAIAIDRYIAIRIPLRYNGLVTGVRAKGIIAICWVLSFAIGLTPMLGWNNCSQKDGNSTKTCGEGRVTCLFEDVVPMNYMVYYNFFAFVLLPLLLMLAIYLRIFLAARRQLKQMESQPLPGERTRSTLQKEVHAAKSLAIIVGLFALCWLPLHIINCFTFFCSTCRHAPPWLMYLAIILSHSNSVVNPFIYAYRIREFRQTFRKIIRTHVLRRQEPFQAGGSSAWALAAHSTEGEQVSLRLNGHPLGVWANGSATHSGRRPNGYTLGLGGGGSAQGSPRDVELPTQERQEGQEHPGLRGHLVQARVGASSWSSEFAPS
Protocol: Adenosine receptor binding activity (adenosine A2A receptor binding test) This test was carried out by slightly modifying the method of Bruns et al. [Molecular Pharmacology, 29: 331 (1986)].
Corpus striatum of a rat was suspended in an ice-cooled 50 mM tris(hydroxymethyl)aminomethane hydrochloride (hereinafter referred to as "Tris-HCl") buffer (pH 7.7) using Polytron Homogenizer (manufactured by Kinematica Co.). The suspension was centrifuged (50,000×g, 10 minutes), and the obtained precipitate was re-suspended in the same amount of 50 mM Tris-HCl buffer. The suspension was centrifuged under the same conditions, and the final precipitate was suspended in 50 mM Tris-HCl [containing 10 mM magnesium chloride and 0.02 unit/mg tissue of adenosine deaminase (manufactured by Sigma Co.)] to give a tissue concentration of 5 mg (wet weight)/ml.
To 1 ml of the tissue suspension thus prepared were added 50 μl of tritium-labeled CGS 21680 {^3 H-2-[p-(2-carboxyethyl)phenethylamino]-5'-N-ethylcarboxamido)adenosine: 40 Ci/mmol; manufactured by New England Nuclear Co.[The Journal of Pharmacology and Experimental Therapeutics, 251: 888 (1989)]} (final concentration:4.0 nM) and 50 μl of a test compound. The resulting mixture was allowed to stand for 120 minutes at 25° C., and then rapidly filtered by suction through a glass fiber filter (GF/C, manufactured by Whatman Co.) The filter was immediately washed three times with […] of an ice-cooled 50 mM Tris-HCl buffer, and transferred to a vial, a scintillator (EX-H , manufactured by Wako Pure Chemical Industries, Ltd.) was added thereto, and the radioactivity on the filter was determined with a liquid scintillation counter (manufactured by Packard Instrument Co.) […]
The inhibition ratio of the test compound against the A2A receptor binding (^3 H-CGS 21680 binding) was calculated by the following equation:
Inhibition ratio (%)={1-(Amount of the binding in the presence of the test compound-Amount of the nonspecific binding)/(Amount of the total binding-Amount of the nonspecific binding)}×100
(Note) Amount of the total binding means the amount of radioactivity of ^3 H-CGS 21680 bound in the absence of the test compound. Amount of the nonspecific binding means the amount of radioactivity of ^3 H-CGS 21680 bound in the presence of 100 μM cyclopentyladenosine (CPA, manufactured by Sigma Co.) Amount of the binding in the presence of the test compound means the amount of radioactivity of ^3 H-CGS 21680 bound in the presence of the test compound at various levels of concentrations.

[1] = test system: CGS 21680-induced catalepsy in mice; experiment: Activity on CGS 21680-induced Catalepsy; type: in vivo, mouse (male ddY); conditions: 10 mg/kg oral; for Total score (catalepsy): 10 animals, maximum 50 points, control 48; for Number of Animals showing remission: catalepsy score 4 points or less in 10 cases; for inhibition in vivo at 10 mg/kg: Mus musculus, CGS 21680-induced catalepsy, read-out: Remission ratio (%)
Protocol: Activity on CGS 21680-induced Catalepsy
Parkinson's disease is motor deficit based on the degeneration and cell death of the nigrostriatal dopaminergic neuron. […] [Journal of Neuroscience, 16: 605 (1996)]. Accordingly, it is considered that adenosine A2A receptor agonists positively regulate the output of the striopallidal GABAergic neurons and, as a result, catalepsy is induced by the administration of CGS 21680.
This test was carried out using 10 animals per group of male ddY mice of 5 week age (22 to 25 g in body weight, Japan SLC). CGS 21680 (manufactured by RBI) was dissolved in a physiological saline (manufactured by Otsuka Pharmaceutical), and 10 μg/20 μl of the solution was injected into mouse intracerebro-ventricle. Test compounds were used by suspending them in distilled water containing 0.3% of polyoxyethylene(20)sorbitan monooleate (hereinafter referred to as "Tween 80") (manufactured by Otsuka Pharmaceutical). […] One hour after the administration of the test compound, only forelimbs or only hindlimbs of each animal were laid on a vertically arranged stand made of acryl, having a size of 4.5 cm in height and 1.0 cm in width, to measure catalepsy symptoms. All of the compounds were administered orally in a dose of 10 mg/kg.
The effect was judged by total catalepsy scores of 10 animals in one group (the maximum is 50 points). When the total score was 40 points or less, the activity of drugs was judged positive. The number of animals showing remission of catalepsy was expressed by the number of cases in which the catalepsy score was 4 points or less in 10 cases. The catalepsy remission ratio was expressed as the percentage of the total score in the test compound-administered group to the total score in the control group.

Row | inhibition at 0.1 µM (adenosine A2A receptor) | inhibition at 0.01 µM (adenosine A2A receptor) | SMILES | Total score (catalepsy) [1] | Number of Animals showing remission [1] | inhibition in vivo at 10 mg/kg [1]
1 | 53% | – | Nc1nc(N2CCN(CCOCCO)CC2)cc2nc(-c3ccco3)nn12 [Compound 103, 5-Amino-2-(2-furyl)-7-(4-(2-(2-hydroxyethoxy)ethyl)piperazinyl)[1,2,4]triazolo[1,5-c]pyrimidine] | 2 | 10 | 94%
2 | 66% | 17% | Nc1nc(N2CCN(Cc3cccnc3)CC2)cc2nc(-c3ccco3)nn12 [Compound 70, 5-Amino-2-(2-furyl)-7-[4-(3-picolyl)piperazinyl][1,2,4]triazolo[1,5-c]pyrimidine] | – | – | –
3 | 86% | 46% | COc1cc(OC)cc(Oc2cc3nc(-c4ccco4)nn3c(N)n2)c1 [Compound 33, 5-Amino-7-(3,5-dimethoxyphenoxy)-2-(2-furyl)[1,2,4]triazolo[1,5-c]pyrimidine] | – | – | –
4 | 77% | – | COc1cc(CN2CCN(c3cc4nc(-c5ccco5)nn4c(N)n3)CC2)cc(OC)c1OC [Compound 77, 5-Amino-2-(2-furyl)-7-(4-(3,4,5-trimethoxybenzyl)piperazinyl)[1,2,4]triazolo[1,5-c]pyrimidine] | 21 | 9 | 54%
5 | 58% | – | CCOCCN1CCN(c2cc3nc(-c4ccco4)nn3c(N)n2)CC1 [Compound 96, 5-Amino-7-(4-(2-ethoxyethyl)piperazinyl)-2-(2-furyl)[1,2,4]triazolo[1,5-c]pyrimidine] | 7 | 9 | 86%
6 | 86% | 51% | CC(c1ccccc1)N1CCN(c2cc3nc(-c4ccco4)nn3c(N)n2)CC1 (stereo not shown) [Compound 73, 5-Amino-2-(2-furyl)-7-[4-(1-phenylethyl)piperazinyl][1,2,4]triazolo[1,5-c]pyrimidine] | – | – | –
7 | 37% | – | Nc1nc(N2CCN(c3nc4ccccc4o3)CC2)cc2nc(-c3ccco3)nn12 [Compound 94, 5-Amino-7-(4-(2-benzoxazolyl)piperazinyl)-2-(2-furyl)[1,2,4]triazolo[1,5-c]pyrimidine] | – | – | –
8 | 80% | – | COc1ccc(CCN2CCN(c3cc4nc(-c5ccco5)nn4c(N)n3)CC2)cc1OC [Compound 85, 5-Amino-7-(4-(2-(3,4-dimethoxyphenyl)ethyl)piperazinyl)-2-(2-furyl)[1,2,4]triazolo[1,5-c]pyrimidine] | – | – | –
9 | 85% | – | Nc1nc(N2CCN(Cc3ccccc3F)CC2)cc2nc(-c3ccco3)nn12 [Compound 78, 5-Amino-7-(4-(2-fluorobenzyl)piperazinyl)-2-(2-furyl)[1,2,4]triazolo[1,5-c]pyrimidine] | 6 | 10 | 86%
10 | 90% | 59% | Nc1nc(N2CCN(Cc3ccccc3Cl)CC2)cc2nc(-c3ccco3)nn12 [Compound 68, 5-Amino-7-[4-(2-chlorobenzyl)piperazinyl]-2-(2-furyl)[1,2,4]triazolo[1,5-c]pyrimidine] | – | – | –
11 | 79% | 20% | Nc1nc(N2CCN(Cc3ccc4c(c3)OCO4)CC2)cc2nc(-c3ccco3)nn12 [Compound 66, 5-Amino-2-(2-furyl)-7-(4-piperonylpiperazinyl)[1,2,4]triazolo[1,5-c]pyrimidine] | – | – | –
12 | 66% | 10% | Nc1nc(N2CCN(CC3CCCCC3)CC2)cc2nc(-c3ccco3)nn12 [Compound 72, 5-Amino-7-(4-cyclohexylmethylpiperazinyl)-2-(2-furyl)[1,2,4]triazolo[1,5-c]pyrimidine] | – | – | –
13 | 38% | – | COCCN1[C@H](C)CN(c2cc3nc(-c4ccco4)nn3c(N)n2)C[C@@H]1C [Compound 117, 5-Amino-7-(cis-3,5-dimethyl-4-(2-methoxyethyl)piperazinyl)-2-(2-furyl)[1,2,4]triazolo[1,5-c]pyrimidine] | – | – | –
14 | 82% | – | Nc1nc(SCc2ccccc2)cc2nc(-c3ccco3)nn12 [Compound 183, 5-Amino-7-benzylthio-2-(2-furyl)[1,2,4]triazolo[1,5-c]pyrimidine] | – | – | –
15 | 75% | – | Nc1nc(SCc2ccccc2[N+](=O)[O-])cc2nc(-c3ccco3)nn12 [Compound 194, 5-Amino-2-(2-furyl)-7-(2-nitrobenzylthio)[1,2,4]triazolo[1,5-c]pyrimidine] | – | – | –
16 | 72% | – | Nc1nc(N2CCN(CCCOCc3ccccc3)CC2)cc2nc(-c3ccco3)nn12 [Compound 102, 5-Amino-7-(4-(3-benzyloxypropyl)piperazinyl)-2-(2-furyl)[1,2,4]triazolo[1,5-c]pyrimidine hydrochloride] | – | – | –
17 | 51% | – | C[C@@H]1CN(c2cc3nc(-c4ccco4)nn3c(N)n2)C[C@H](C)N1CCCc1ccccc1 [Compound 119, 5-Amino-7-(cis-3,5-dimethyl-4-(3-phenylpropyl)piperazinyl)-2-(2-furyl)[1,2,4]triazolo[1,5-c]pyrimidine] | – | – | –
18 | 73% | 29% | Nc1nc(N2CCN(Cc3ccncc3)CC2)cc2nc(-c3ccco3)nn12 [Compound 71, 5-Amino-2-(2-furyl)-7-[4-(4-picolyl)piperazinyl][1,2,4]triazolo[1,5-c]pyrimidine] | – | – | –
19 | 82% | – | Nc1nc(SCc2ccccn2)cc2nc(-c3ccco3)nn12 [Compound 182, 5-Amino-2-(2-furyl)-7-(2-picolylthio)[1,2,4]triazolo[1,5-c]pyrimidine] | – | – | –
20 | 52% | – | CC(CO)N1CCN(c2cc3nc(-c4ccco4)nn3c(N)n2)CC1 (racemic) [Compound 111, (±)-5-Amino-2-(2-furyl)-7-(4-((2-hydroxy-1-methyl)ethyl)piperazinyl)[1,2,4]triazolo[1,5-c]pyrimidine] | – | – | –
21 | 77% | 39% | COc1ccc(CN2CCN(c3cc4nc(-c5ccco5)nn4c(N)n3)CC2)cc1OC [Compound 67, 5-Amino-7-[4-(3,4-dimethoxybenzyl)piperazinyl]-2-(2-furyl)[1,2,4]triazolo[1,5-c]pyrimidine] | – | – | –
22 | 54% | 16% | COc1ccc(CNc2nc(Sc3ccccc3)cc3nc(-c4ccco4)nn23)cc1OC [Compound 10, 5-(3,4-Dimethoxybenzylamino)-2-(2-furyl)-7-phenylthio[1,2,4]triazolo[1,5-c]pyrimidine] | – | – | –
23 | 52% | – | Cc1ccc(CSc2cc3nc(-c4ccco4)nn3c(N)n2)cc1 [Compound 186, 5-Amino-2-(2-furyl)-7-(4-methylbenzylthio)[1,2,4]triazolo[1,5-c]pyrimidine] | – | – | –
24 | 62% | 44% | Nc1nc(N2CCN(Cc3cccc(Cl)c3)CC2)cc2nc(-c3ccco3)nn12 [Compound 69, 5-Amino-7-[4-(3-chlorobenzyl)piperazinyl]-2-(2-furyl)[1,2,4]triazolo[1,5-c]pyrimidine] | – | – | –
